Reference: article PMC4618117, “Synthesis and Antiproliferative Activity of Steroidal Thiosemicarbazone Platinum (Pt(II)) Complexes” (Bioinorganic Chemistry and Applications, 2015)
Where two headings read alike, the source gives them in different places.

Legend:
[1] = system: Bel-7404 (human liver carcinoma) cells; experiment: MTT antiproliferative assay, Bel-7404; assay type: cell-based; settings: for IC50: mean of three independent determinations, read-out: Cytotoxicity IC50 Bel-7404
Procedure: (§1) Melting points were determined on an X4 apparatus (Beijing Tech Instrument Co. Ltd., Beijing, China) and were uncorrected. The ^1H and ^13C NMR spectra were recorded in CDCl3 on a Bruker AV-600 spectrometer at working frequencies 600 and 150 MHz and a Bruker AV-300 spectrometer at working frequencies 300 and 75 MHz, respectively. Chemical shifts are expressed in parts per million (δ) values and coupling constants (J) in Hertz. Infrared spectra were measured with a Thermo Scientific Nicolet IS-10 Spectrophotometer (Thermo Scientific, America). HREIMS was measured on an Agilent 6210 TOFMS instrument (Agilent Technologies, America). The cell proliferation assay was undertaken by a MTT method using 96-well plates on a […] MK3 analysis spectrometer (Thermo Scientific, Shanghai, China).
(§2) The detailed procedure has been reported in our previous work.
(§3) The antiproliferative activities of all steroidal thiosemicarbazones and their Pt(II) metal complexes were determined in vitro on Bel 7404, HeLa, and HEK293T. […] The results are summarized as IC50 values in μM in Table 1.

[2] = system: HeLa (human cervical carcinoma) cells; experiment: MTT antiproliferative assay, HeLa; assay type: cell-based; settings: for IC50: mean of three independent determinations, read-out: Cytotoxicity IC50 HeLa
Procedure: as §1, §2, §3

[3] = MTT antiproliferative assay, HEK293T; assay type: cell-based; settings: human, HEK293T normal kidney epithelial cells, mean of three independent determinations, read-out: Cytotoxicity IC50 HEK293T
Procedure: as §1, §2
(§4) The antiproliferative activities of all steroidal thiosemicarbazones and their Pt(II) metal complexes were determined in vitro on Bel 7404, HeLa, and HEK293T.

[4] = system: HEK293T (normal kidney epithelial cells); experiment: MTT antiproliferative assay, HEK293T; assay type: cell-based; settings: mean of three independent determinations, read-out: Cytotoxicity IC50 HEK293T
Procedure: as §1, §2, §4

[5] = Homo sapiens, BEL-7404, MTT assay

Work on `COC(=O)CCC(C)C1CCC2C3CCC4CC(=NNC(N)=S)CCC4(C)C3CC(=O)C12C` (stereo not shown) [Compound 13, Methyl 3-Thiosemicarbazonyl-12-oxo-7-deoxycholicate] yielded an IC50 [1, 5] greater than 200 µM, a melting point of 125 to 127 °C and an IC50 ([2]; Homo sapiens, HeLa, MTT assay) greater than 200 µM. It also gave an IC50 [3] greater than 200 µM.
`COC(=O)CCC(C)C1CCC2C3C(=O)CC4CC(=NNC(N)=S)CCC4(C)C3CCC12C` (stereo not shown) [Compound 8, Methyl 3-Thiosemicarbazonyl-7-oxochenodeoxycholicate] gave an IC50 [1, 5] greater than 200 µM, a melting point of 285 to 286 °C and an IC50 ([2]; Homo sapiens, HeLa, MTT assay) of 96 µM. For the same compound, the IC50 [3] was greater than 200 µM.
With `CC12CCC3c4ccc(O)cc4CCC3C1CCC2=NNC(N)=S` (stereo not drawn) [Compound 2, 3β-Hydroxyestron-17-thiosemicarbazone] the IC50 [1, 5] was 19 µM, the melting point was 254 to 256 °C and the IC50 ([2]; Homo sapiens, HeLa, MTT assay) was 34 µM.
In the case of `COC(=O)CCC(C)C1CCC2C3C(O)CC4CC(=NNC(N)=S)CCC4(C)C3CCC12C` (stereo not shown) [Compound 10, Methyl 3-Thiosemicarbazonyl-7-hydroxychenodeoxycholicate], the IC50 [1, 5] is reported as greater than 200 µM, the IC50 ([2]; Homo sapiens, HeLa, MTT assay) is reported as 142 µM and the IC50 [3] is reported as greater than 200 µM.
In the case of `CC(=O)Oc1ccc2c(c1)CCC1C2CCC2(C)/C(=N/NC(N)=S)CCC12` (stereo not drawn) [Compound 5, 3β-Acetyloxyestron-17-thiosemicarbazone], the IC50 [1, 5] is reported as greater than 200 µM, the melting point is reported as 248 to 249 °C and the IC50 ([2]; Homo sapiens, HeLa, MTT assay) is reported as 42 µM. The IC50 [3] was greater than 200 µM.
In the case of `CC12CCC3c4ccc(O)cc4CCC3C1CCC2=[N+]1NC(N)=[S+][Pt-2]1([Cl])[Cl]` (stereo not shown) [Compound 3, [PtL ^2 Cl 2]], the IC50 ([1]; MTT assay) is reported as 39 µM, the “Cytotoxicity against Bel 7404 cells (in words)” value ([1]; MTT assay, verbal summary) is reported as “obvious cytotoxicity” and the “SI Bel 7404 (Selectivity Index)” value ([1]; ratio IC50 HEK293T versus IC50 Bel 7404) is reported as greater than 5.1. For the same compound, the IC50 ([2]; MTT assay) was 23 µM, the “Cytotoxicity against HeLa cells (in words)” value ([2]; MTT assay, verbal summary) was “obvious cytotoxicity” and the “SI HeLa (Selectivity Index)” value ([2]; ratio IC50 HEK293T versus IC50 HeLa) was greater than 8.7. It also gave an IC50 [4] greater than 200 µM.
